Consider one molecule from patent US20040043403A1, “Process for determining the biological activity of epidermal growth factor receptor tyrosine kinase inhibitors” (priority 2000, published 2004).

SMILES strings stand for the structures.

What all share (assay type): cell-based, human
The test system of one experiment is NCI-H520. As to the kind of experiment: Western blot of clusterin induction in NCI-H520 cells. The conditions noted are these: NCI-H520 cells (do not express EGFR), 300 nM, 24 h, vs 0.03% DMSO. On the procedure: (§1) An EGFR tyrosine kinase inhibitor is dissolved in DMSO to obtain a 10 mM stock solution. The stock solution is further diluted in culture medium to final concentrations of 10 nM to 3 μM. 3.5 million cells/100 mm dish/12 ml culture medium are incubated for 24 h in 5% CO2 at 37° C. The medium is replaced with medium containing the EGFR tyrosine kinase inhibitor or DMSO. Cells are incubated for 4 to 32 h. The frozen pellets are lysed in 500 μl of lysis buffer (50 mM Tris-HCl pH 7.5, 1% Sodium Dodecyl Sulfate (SDS)). To shear genomic DNA, the cell lysates are processed in a FastPrep instrument for 20 sec at a speed rating of 4, using the green […] tubes (Bio101#6040-6010). Protein concentrations are determined according to the PIERCE-method (BCA Protein Assay, Reagent A and B). Protein concentration of lysates is adjusted to 1 μg/μl with lysis buffer. 4 parts of cell lysates are mixed with 1 part of 5 fold concentrated Laemmli buffer, the lysates are stored at -20° C. 40 μl of cell lysate is heated for 3 min to 95° C. and directly loaded on to 10% or 15% SDS-PAGE gels. The gels are run at 130 V for 90 min under standard conditions. The separated proteins are semi-dry blotted on to a PVDF membrane (Immobilon-P, Millipore #IPVH 202 00) for 70 min with 45 mA per blot. […]
(Immunoblotting shows a protein as a band on a membrane.)

Another experiment concerns A431 cells. In words: Western blot of clusterin induction in A431 cells. As to the method: as §1, with “blot. Immediately after the transfer the blots are incubated in Blotto A (5% skim milk powder in Tris Buffered Saline (TBS)/0.05% Tween-20) for 1 h at room temperature on a rotating platform. The blots are then washed three times in TBS/0.05% Tween-20. The blots are incubated […] with 0.2 μg/ml of e.g. goat anti-human clusterin (C-18) antibody (Santa Cruz, sc-6419) in Blotto A for 1.5 h at room temperature on a rotating platform. The control blots are incubated with 0.2 μg/ml of mouse anti-human-actin (C-2) antibody (Santa Cruz, sc-8432). The blots are washed three times with TBS/0.05% Tween-20.” for “blot.”

The subject of another experiment is NCI-H596. In words: Real time RT-PCR gene expression in NCI-H596 cells. As to conditions: NCI-H596, 3 μM, 24 h; relative to DMSO-treated NCI-H520 calibrator. On the procedure: 20 million tissue culture cells (about 80% confluent) or 200 million WBCs are incubated for 2 or 24 h in culture medium containing 3 μM of an EGFR tyrosine kinase inhibitor or 0.03% DMSO. Total RNA from cell pellet is isolated using the RNeasy kit (Qiagen). mRNA is isolated using the oligotex mRNA purification kit (Qiagen). The quality of the obtained mRNA is tested by real time RT-PCR using beta-Actin primers (PE Applied Biosystems) with an amplicon size of 300 base pairs (bp). The total RNA is used as a reference to calculate the amount of mRNA-enrichment in the oligotex purified samples. The primers and probes are designed from mRNA sequences within the coding region or in the 3′ untranslated region (Table 2). For real time RT-PCR, RNA concentrations between 1 and 50 ng/reaction are used to obtain signals between 15-35 cycles. For each RNA preparation RT-PCR reactions are performed with and without reverse transcriptase to check for genomic DNA contamination. In all RNA samples tested, genomic DNA contamination is less than 1%. To normalize for variability in the initial concentration and quality of the total RNA, Glyceraldehyde-3-phosphate dehydrogenase (GAPDH) is used as an endogenous reference in all quantification experiments. For RT-PCR a one step, two-enzyme system is chosen. The TaqMan PCR Core Reagent Kit (PE #N808-0228) plus the reverse transcriptase MuLV (PE Biosystems # N808-0018) and RNase inhibitor (Roche Diagnostics # 799 025) are mixed as described in the manufacturers protocol. Triplicate measurements are done for target and for reference reactions. […] RT-PCR reactions are done with RNA concentrations of 2.5, 5, 10, 20, 40 and 80 ng per reaction. […] The ΔCT value is determined by subtracting the average reference CT values from the average target CT values of the three measurements. Relative quantification is performed in triplicates, reference and target, using the RT-PCR protocol described above. […] Expression levels for the three genes, calculated relative to NCI-H520, show big differences between the various cell types (Table 5). […]

On to `C[C@@H](Nc1ncnc2[nH]c(-c3ccc(O)cc3)cc12)c1ccccc1` [COMPOUND A, (R)-6-(4-hydroxy-phenyl)-4-[(1-phenyl-ethyl)-amino]-7H-pyrrolo[2,3-d]pyrimidine], for which the “Clusterin induction, Western blot (FIG. 4)” value with NCI-H520 is given as “no detectable clusterin levels”. The “Clusterin induction, Western blot (FIG. 4)” value with A431 cells (A431 cells (high levels of EGFR), 300 nM, 24 h, vs 0.03% DMSO) is reported as “strong clusterin expression signals”. For the same molecule, in the experiment on A431 cells (A431 cells, 10 nM to 1 μM, 24 h, signals increase with concentration), the “Concentration at which the 43 kDa clusterin signals reach a maximum (FIG. 2)” value was 300 nM. For the same molecule, the “Time course of clusterin protein induction (FIG. 3)” value with A431 cells (A431 cells, 300 nM, 4, 8, 16, 24 and 32 h) was “continuous increase of clusterin signal from 16 h to 32 h”. Besides, in the experiment with NCI-H596, the “Relative Clusterin expression” value came to 44.12 n-fold, the “Relative TRAIL expression” value worked out at 81.76 n-fold and the “Relative VAC-beta expression” value is given as 102.30 n-fold.
